{
  "source": "paper PMC10547238",
  "about": "“Discovery of Potent Tetrazole Free Fatty Acid Receptor 2 Antagonists” (Journal of Medicinal Chemistry, 2023)",
  "key": {"hFFA2": {"target": "T1, hFFA2 (Homo sapiens, UniProt O15552)", "T1 construct": "expressed in transfected cells; host or cells: Flp-In T-Rex 293 cells, doxycycline-induced", "T1 sequence (O15552 1-330)": "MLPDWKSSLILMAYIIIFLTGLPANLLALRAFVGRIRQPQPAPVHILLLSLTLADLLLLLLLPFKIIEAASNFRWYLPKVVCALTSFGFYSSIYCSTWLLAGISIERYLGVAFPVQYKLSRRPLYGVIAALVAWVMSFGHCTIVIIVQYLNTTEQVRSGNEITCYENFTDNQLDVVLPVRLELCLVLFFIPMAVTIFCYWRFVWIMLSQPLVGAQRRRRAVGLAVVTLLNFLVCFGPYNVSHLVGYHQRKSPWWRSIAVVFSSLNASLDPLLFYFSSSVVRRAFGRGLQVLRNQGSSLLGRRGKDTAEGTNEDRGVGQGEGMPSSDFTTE", "experiment": "cAMP assay, antagonist mode, Flp-In T-Rex 293 cells expressing hFFA2-eYFP", "assay_type": "cell-based", "settings": "for cAMP pIC50: hFFA2, antagonist mode, propionate at EC80, mean ± SEM, three or more experiments; for LLEcAMP: pIC50, cAMP – ClogP; for LLEcAMP-logD: pIC50, cAMP – logD7.4; for IC50: read-out: hFFA2 cAMP (pIC50) (converted)", "description": "(§1) The activity of the compounds on FFA2 was evaluated in two different functional antagonist assays, both using propionate at EC80 as the agonist. The GTPγS assay reflects receptor activation by directly assessing G protein recruitment, whereas the cAMP assay, performed in whole cells, reflects a physiologically relevant downstream second messenger.\nThe hFFA2-eYFP and hFFA3-eYFP Flp-In T-Rex 293 cell lines were maintained in Dulbecco’s modified Eagle mMedium (DMEM, ThermoFisher #11965092) supplemented with 10% (v/v) fetal bovine serum, 100 U/mL penicillin, 100 μg/mL streptomycin, 5 μg/mL blasticidin S, and 200 μg/mL hygromycin B and incubated at 37 °C and 5% CO2 in a humidified incubator. Cells were passaged at 70–80% confluency.\nTo determine the compound’s ability to activate or inhibit the Gi-coupled FFA2 or FFA3, intracellular cAMP concentrations were determined using Flp-In T-Rex293 cells induced to express hFFA2-eYFP or hFFA3-eYFP. Experiments were carried out using a homogeneous time-resolved FRET-based detection kit (CisBio, PerkinElmer #62AM9PEC) according to the manufacturer’s protocol. The day before the assay, 10,000 cells/well were plated in DMEM supplemented with penicillin/streptomycin (100 units/mL and […], respectively), 5 μg/mL blasticidin S, and 200 μg/mL hygromycin B in 96-well cell culture microplates (Greiner Bio-One) and induced to express hFFA2-eYFP or hFFA3-YFP with 100 ng/mL doxycycline.\nIn antagonist mode, the cells were pre-incubated for 20 min with antagonist test compounds in HBSS together with 50 μM IBMX at rt. Then, the cells were further incubated for 25 min at rt in HBSS with the agonist compound, sodium propionate at EC80 (51.4 μM for FFA2, 13.2 μM for FFA3), and 3 μM forskolin. Reactions were stopped, and the output was measured with an Envision plate reader using a time-resolved fluorescence protocol, measuring the light emission at 620 and 665 nm. All analyses were performed in triplicate and analyzed using GraphPad Prism (version 9)."}, "human FFA2-eYFP": {"target": "T2, human FFA2-eYFP (Homo sapiens, UniProt O15552)", "T2 construct": "expressed in transfected cells; host or cells: membranes of Flp-In T-Rex 293 cells induced to express the construct", "T2 sequence (O15552 1-330)": "T1 sequence (O15552 1-330)", "experiment": "[35S]GTPγS incorporation assay, membranes of Flp-In T-Rex 293 cells", "assay_type": "biochemical", "settings": "for GTPγS pIC50: hFFA2, propionate at EC80, mean ± SEM, three or more experiments; for LLEGTPγS: pIC50, GTPγS – ClogP", "description": "as §1\nFunctional activity of the compounds were tested in a [^35S]GTPγS incorporation assay using membranes of Flp-In T-Rex 293 cells induced to express human FFA2-eYFP. […] The reaction was initiated by addition of [^35S]GTPγS (100 nCi per reaction) containing 1 μM GDP and incubated at 30 °C for 60 min. The reaction was terminated by rapid vacuum filtration through GF/C glass fiber filter-bottom 96-well microplates (PerkinElmer Life Sciences, Beaconsfield, UK) using a UniFilter FilterMate Harvester (PerkinElmer). Unbound radioligands were removed from filters by three washes with ice-cold PBS. MicroScint-20 (PerkinElmer) was added to dried filters, and [^35S]GTPγS binding was quantified by liquid scintillation spectroscopy."}, "[1]": {"experiment": "Kinetic aqueous solubility", "assay_type": "physicochemical", "settings": "phosphate buffer; kinetic solubility in PBS at pH 7.4 and 25 °C", "description": "Twenty microliters of a 10 mM compound stock solution in DMSO was added to an Eppendorf tube containing 980 μL of phosphate buffer (10 mM, pH = 7.4). The samples were incubated in an Eppendorf Thermomixer (25 °C, 800 rpm) for 24 h. Afterward, the samples were centrifuged for 5 min at 11,000 rpm and the supernatant was filtered (0.2 μm PTFE membrane) before analysis by HPLC. Each compound was analyzed in duplicate. The solubility was calculated from the peak area relative to the reference samples (200 μM in MeOH/MilliQ H2O, 60/40, v/v)."}, "[2]": {"experiment": "Lipophilicity (logD7.4), octanol/PBS7.4 shake flask", "assay_type": "physicochemical", "settings": "1-octanol/PBS7.4, pH 7.4; mean of two independent experiments", "description": "The assay was performed in duplicates essentially as previously described.[58] A glass vial with a screw cap (8 mL) was charged with the test compound (40 μL, 10 mM in DMSO), PBS7.4 (0.01 M, 1980 μL), and 1-octanol (1980 μL). The vial was capped and sealed with a Parafilm and shaken at 700 rpm using an IKA KS 125 basic shaker for 24 h at 25 °C. The Parafilm was removed, and the sample was allowed to equilibrate for 1 h before analysis. One hundred microliters of the octanol phase was withdrawn and diluted 1:10 with MeOH (+0.1% TFA)/MilliQ water (4:1, v/v) and analyzed by HPLC. The interface was removed, and the PBS7.4 phase analyzed directly by HPLC. All analysis was performed in duplicates, and log D7.4 values were calculated from the peak areas (mAU·min) and adjusted for difference in injection volume and concentration-absorption effects from the solvents, using two calibration points per compound per solvent, and dilution of the octanol phase."}, "Microsomal stability": {"experiment": "Microsomal stability", "assay_type": "in vitro ADME, mouse", "description": "The assay was performed in duplicates essentially as described previously,[58] using male CD1 mouse liver microsomes (Thermo Fischer Scientific, 20 mg/mL), NADPH-regenerating agent Solution A and Solution B (Promega), potassium phosphate buffer (100 mM, pH 7.4), and test compounds (1 mM, diluted from 10 mM DMSO stock in the buffer). The samples were analyzed in an Agilent 6130 Mass Spectrometer instrument using electron spray ionization (ESI) coupled to an Agilent 1200 HPLC system (ESI-LCMS) with a C18 reverse phase column (Zorbax Eclipse XBD-C18, 4.6 mm × 50 mm) using a linear gradient of the binary solvent system of 100% mobile phase A (water:MeCN:formic acid, 95:5:0.1 v/v%) to 100% mobile phase B (MeCN:formic acid, 100:0.1 v/v %) in 6 min, with a flow rate of 1 mL/min.\nTo a pre-warmed solution of potassium phosphate buffer (135.6 μL) in an Eppendorf tube at 37 °C were added Solution A (7.5 μL), Solution B (1.5 μL), microsomes (3.9 μL), and the test compound (1 mM, 1.5 μL, final concentration = 10 μM). The tube was briefly vortexed and incubated at 37 °C in a thermomixer. At 0, 15, 30, 45, and 60 min, 25 μL of each sample was transferred to an ice-cold solution containing an internal standard (5 μM in MeCN, 12.5 μL). The sample was briefly vortexed and centrifuged for 5 min at 10.000g. The supernatant (25 μL) was transferred to HPLC vial and analyzed by ESI-LCMS in single ion mode. The data was analyzed using GraphPad Prism (version 9)."}, "[3]": {"settings": "% recovered after 60 min, mouse liver microsomes"}},
  "data": [
    {"smiles": "Cc1cccc(CC(=O)N[C@@H](Cc2ccc(C(F)(F)F)cc2)Cc2nnn[nH]2)c1", "note": "[Compound 8, (S)-N-(1-(1H-Tetrazol-5-yl)-3-(4-(trifluoromethyl)phenyl)propan-2-yl)-2-(m-tolyl)acetamide]", "values": [
      {"measurement": "cAMP pIC50", "setting": "hFFA2", "value": "8.30 ± 0.12"},
      {"measurement": "LLEcAMP", "setting": "hFFA2", "value": 5.24},
      {"measurement": "LLEcAMP-logD", "setting": "hFFA2", "value": 7.04},
      {"measurement": "IC50", "setting": "hFFA2; supplementary CSV", "value": 5.62, "unit": "nM"},
      {"measurement": "GTPγS pIC50", "setting": "human FFA2-eYFP", "value": "8.07 ± 0.08"},
      {"measurement": "LLEGTPγS", "setting": "human FFA2-eYFP", "value": 5.01},
      {"measurement": "increased potency over CATPB (3)", "setting": "human FFA2-eYFP; vs 3", "value": "more than 10 fold"},
      {"measurement": "increase in potency over TUG-1958 (4)", "setting": "human FFA2-eYFP; vs 4", "value": 4, "unit": "fold"},
      {"measurement": "solubility at 24 h", "setting": "[1]", "value": 163, "unit": "µM"},
      {"measurement": "logD at 25 h", "setting": "[2]", "value": "1.26 ± 0.07"},
      {"measurement": "microsomal stability", "setting": "Microsomal stability; [3]", "value": 89, "unit": "%"},
      {"measurement": "microsomal stability", "setting": "Microsomal stability; supplementary CSV", "value": 89, "unit": "%"}
    ]},
    {"smiles": "O=C(Cc1cccc(Cl)c1)N[C@@H](Cc1ccc(C(F)(F)F)cc1)Cc1nnn[nH]1", "note": "[Compound 16e, (S)-N-(1-(1H-Tetrazol-5-yl)-3-(4-(trifluoromethyl)phenyl)propan-2-yl)-2-(3-chlorophenyl)acetamide]", "values": [
      {"measurement": "cAMP pIC50", "setting": "hFFA2", "value": "8.15 ± 0.05"},
      {"measurement": "LLEcAMP", "setting": "hFFA2", "value": 4.87},
      {"measurement": "LLEcAMP-logD", "setting": "hFFA2", "value": 6.35},
      {"measurement": "IC50", "setting": "hFFA2; supplementary CSV", "value": 6.61, "unit": "nM"},
      {"measurement": "GTPγS pIC50", "setting": "human FFA2-eYFP", "value": "8.53 ± 0.19"},
      {"measurement": "LLEGTPγS", "setting": "human FFA2-eYFP", "value": 5.25},
      {"measurement": "solubility at 24 h", "setting": "[1]", "value": 138, "unit": "µM"},
      {"measurement": "logD at 25 h", "setting": "[2]", "value": "1.8 ± 0.09"},
      {"measurement": "microsomal stability", "setting": "Microsomal stability; [3]", "value": 92, "unit": "%"},
      {"measurement": "microsomal stability", "setting": "Microsomal stability; supplementary CSV", "value": 92, "unit": "%"}
    ]},
    {"smiles": "O=C(Cc1cccc(Br)c1)N[C@@H](Cc1ccc(C(F)(F)F)cc1)Cc1nnn[nH]1", "note": "[Compound 16g, (S)-N-(1-(1H-Tetrazol-5-yl)-3-(4-(trifluoromethyl)phenyl)propan-2-yl)-2-(3-bromophenyl)acetamide]", "values": [
      {"measurement": "cAMP pIC50", "setting": "hFFA2", "value": "8.21 ± 0.09"},
      {"measurement": "LLEcAMP", "setting": "hFFA2", "value": 4.78},
      {"measurement": "hFFA2 cAMP (pIC50)", "setting": "hFFA2; supplementary CSV", "value": "8.19 ± 0.19"},
      {"measurement": "GTPγS pIC50", "setting": "human FFA2-eYFP", "value": "8.30 ± 0.21"},
      {"measurement": "LLEGTPγS", "setting": "human FFA2-eYFP", "value": 4.87},
      {"measurement": "solubility at 24 h", "setting": "[1]", "value": 121, "unit": "µM"}
    ]},
    {"smiles": "O=C(Cc1cccc(I)c1)N[C@@H](Cc1ccc(C(F)(F)F)cc1)Cc1nnn[nH]1", "note": "[Compound 16h, (S)-N-(1-(1H-Tetrazol-5-yl)-3-(4-(trifluoromethyl)phenyl)propan-2-yl)-2-(3-iodophenyl)acetamide]", "values": [
      {"measurement": "cAMP pIC50", "setting": "hFFA2", "value": "8.26 ± 0.08"},
      {"measurement": "LLEcAMP", "setting": "hFFA2", "value": 4.57},
      {"measurement": "IC50", "setting": "hFFA2; supplementary CSV", "value": 6.03, "unit": "nM"},
      {"measurement": "GTPγS pIC50", "setting": "human FFA2-eYFP", "value": "8.38 ± 0.05"},
      {"measurement": "LLEGTPγS", "setting": "human FFA2-eYFP", "value": 4.69},
      {"measurement": "solubility at 24 h", "setting": "[1]", "value": 81, "unit": "µM"}
    ]}
  ]
}
